From US5428038A, “Benzopyranones, a method for producing them and uses therefor” (Dr. Willmar Schwabe GmbH & Co., priority 1991, dated 1995) come the findings set out here.

As a reminder, the ED50 is the dose at which the effect has come halfway, by size or by number of responders. A higher ED50 goes with weaker potency.

In one assay the test system is NMDA-induced death. The assay is described as follows: NMDA test (25 mg/kg i.v.), prevention of NMDA-induced death (neuroprotective efficacy). The class given is in vivo, male NMRI mice. Particulars: Mus musculus, po, 1 h; dose protecting 50% of animals against NMDA-induced death one hour after application; NMDA 25 mg/kg i.v. As for the experimental part: In order to determine the neuroprotective and anticonvulsive activity of the compounds in accordance with the invention of the general formula I, two slightly different methods were employed as follows: […]
1. In order to determine the neuroprotective efficacy NMDA at a rate of 25 mg/kg/10 ml was administered intravenously to male NMRI mice with a body weight of 20 to 25 g. As a consequence of this application the animals suffer clonic and partly tonic convulsions, which lead to death. As a criterion for the efficacy of the investigated compounds prevention of death is used.
All animals used in the investigations had free access to food and water prior to the experiments. The test and reference substances were all administered as a suspension in 0.2% agar or water, partly by the intermediary of solution promoters such as for instance PEG-400, perorally using an esophageal probe. Control animals received the same volumes of the solvent with optional solution promoters. One hour after the application of the substance NMDA was administered intravenously and the animals observed for the occurrence of convulsions.
In table 1 the results of the tests (NMDA 25 mg i.v.) performed in accordance with method 1 are compiled with dosages of 5-100 mg of the compounds in accordance with the invention per kg of body weight as compared with known NMDA-antagonists. As a percentage efficacy the percentage of surviving animals is used.
The determination of the ED50 values was performed in accordance with the method described in Lichtfield and Wilcoxon, J. Pharmacol. exp. Therapeut. 96, 99 (1949) in each case with 4 to 5 groups of 10 animals per dosage rate.
For `COc1ccc(N2CCN(CCCOc3cc4c5c(c(=O)oc4cc3OC)CCC5)CC2)cc1` [Example 56, 2,3-dihydro-7-methoxy-8-{3-[4-(4-methoxyphenyl)-1-piperazinyl]propoxy}cyclopenta[c][1]benzopyran-4(1H)-one], the 50% effect level (ED50) was put at a dose of 2.6 mg/kg. The molecule `CCOc1cc2oc(=O)ccc2cc1OCCCN1CCN(c2ccccc2OC)CC1` [Example 7, 7-ethoxy-6-{3-[4-(2-methoxyphenyl)-1-piperazinyl]propoxy}-2H-1-benzopyran-2-one] registered an ED50 of 0.9 mg/kg.

Regarding `COc1cc2oc(=O)c3c(c2cc1OCCCN1CCN(c2ccccc2OC)CC1)CCC3` [Example 54, 2,3-dihydro-7-methoxy-8-{3-[4-(2-methoxyphenyl)-1-piperazinyl]propoxy}cyclopenta[c][1]benzopyran-4(1H)-one], the ED50 is 0.4 mg/kg. Same read-out and setting: the figure for `COc1cc2oc(=O)c(-c3ccccc3)c(C)c2cc1OCCCN1CCN(c2ccccc2)CC1` [Example 41, 7-methoxy-4-methyl-3-phenyl-6-[3-(4-phenyl-1-piperazinyl)propoxy]-2H-1-benzopyran-2-one] is 4.8 mg/kg.

The assay is the same for the next values; noted with them: Mus musculus, po; 5 mg/kg p.o. 1 h before test; NMDA 25 mg/kg i.v.; read-out: Protective action (percentage of surviving animals).
Consider `COc1cc2oc(=O)c3c(c2cc1OCCCN1CCN(c2ccccc2F)CC1)CCC3` [Example 66, 8-{3-[4-(2-fluorophenyl)-1-piperazinyl]propoxy}-2,3-dihydro-7-methoxy-cyclopenta[c][1]benzopyran-4(1H)-one], for which the responders at 5 mg/kg turned out to be 100%. Turning to `COc1cc2oc(=O)c3c(c2cc1OCCCCCN1CCN(c2ccccc2)CC1)CCC3` [Example 47, 2,3-dihydro-7-methoxy-8-[5-(4-phenyl-1-piperazinyl)pentyloxy]cyclopenta[c][1]benzopyran-4(1H)-one], the responders at 5 mg/kg came to 62.5%.

In the case of `COc1ccc(N2CCN(CCCOc3cc4c5c(c(=O)oc4cc3OC)CCC5)CC2)cc1` [Example 56, 2,3-dihydro-7-methoxy-8-{3-[4-(4-methoxyphenyl)-1-piperazinyl]propoxy}cyclopenta[c][1]benzopyran-4(1H)-one], the responders at 5 mg/kg amounted to 87.5%. Still for that read-out and setting: for `COc1cc2oc(=O)c3c(c2cc1OCCCCCN1CCC(c2ccccc2)CC1)CCC3` [Example 51, 2,3-dihydro-7-methoxy-8-[5-(4-phenyl-1-piperidinyl)pentyloxy]cyclopenta[c][1]benzopyran-4(1H)-one] the value was 12.5%; for `COc1cc2oc(=O)cc(C(C)C)c2cc1OCCCN1CCN(c2ccccc2)CC1` [Example 35, 7-methoxy-4-(1-methylethyl)-6-[3-(4-phenyl-1-piperazinyl)propoxy]-2H-1-benzopyran-2-one], 75%. On the same count and under the same terms, for `CCOc1cc2oc(=O)ccc2cc1OCCCN1CCN(c2ccccc2OC)CC1` [Example 7, 7-ethoxy-6-{3-[4-(2-methoxyphenyl)-1-piperazinyl]propoxy}-2H-1-benzopyran-2-one] the value was 100%; for `COc1cc2oc(=O)c3c(c2cc1OCCCN1CCN(c2ccccc2OC)CC1)CCC3` [Example 54, 2,3-dihydro-7-methoxy-8-{3-[4-(2-methoxyphenyl)-1-piperazinyl]propoxy}cyclopenta[c][1]benzopyran-4(1H)-one], 100%.

As for `CCOc1ccccc1N1CCN(CCCOc2cc3c4c(c(=O)oc3cc2OC)CCC4)CC1` [Example 57, 8-{3-[4-(2-ethoxyphenyl)-1-piperazinyl]propoxy}-2,3-dihydro-7-methoxy-cyclopenta[c][1]benzopyran-4(1H)-one], the responders at 5 mg/kg amounted to 100%. On the same count and under the same terms, the figure for `COc1cc2oc(=O)c(-c3ccccc3)c(C)c2cc1OCCCN1CCN(c2ccccc2)CC1` [Example 41, 7-methoxy-4-methyl-3-phenyl-6-[3-(4-phenyl-1-piperazinyl)propoxy]-2H-1-benzopyran-2-one] is 87.5%.

Still in this assay, the particulars now being: Mus musculus, po; 20 mg/kg p.o. 1 h before test; NMDA 25 mg/kg i.v.; read-out: Protective action (percentage of surviving animals).
For the molecule `CNC1(c2ccccc2Cl)CCCCC1=O` (stereo not drawn) [ketamine, reference compound], the responders at 20 mg/kg was 0%.

The same assay, now with this note: Mus musculus, po; 25 mg/kg p.o. 1 h before test; NMDA 25 mg/kg i.v.; read-out: Protective action (percentage of surviving animals).
`COc1cc2oc(=O)c3c(c2cc1OCCCCN1CCC(c2ccccc2)CC1)CCC3` [Example 50, 2,3-dihydro-7-methoxy-8-[4-(4-phenyl-1-piperidinyl)butyloxy]cyclopenta[c][1]benzopyran-4(1H)-one]: the responders at 25 mg/kg was 87.5%.

As to `COc1cc2oc(=O)ccc2cc1OCCCN1CCN(c2ccccc2)CC1` [Example 1, 7-methoxy-6-[3-(4-phenyl-1-piperazinyl)propoxy]-2H-1-benzopyran-2-one], the responders at 25 mg/kg was found to be 100%.

Consider `COc1cc2oc(=O)c3c(c2cc1OCCCN1CCN(c2ncccn2)CC1)CCC3` [Example 63, 2,3-dihydro-7-methoxy-8-{3-[4-(2-pyrimidinyl)-1-piperazinyl]propoxy}cyclopenta[c][1]benzopyran-4(1H)-one], for which the responders at 25 mg/kg stood at 12.5%. The same measure, in the same setting: the figure for `COc1cc2ccc(=O)oc2cc1OCCCN1CCN(c2ccccc2)CC1` [Example 2, 6-methoxy-7-[3-(4-phenyl-1-piperazinyl)propoxy]-2H-1-benzopyran-2-one] is 100%; for `CCCCc1c(C)c2cc(OCCCN3CCC(c4ccccc4)CC3)c(OC)cc2oc1=O` [Example 38, 3-butyl-7-methoxy-4-methyl-6-[3-(4-phenyl-1-piperidinyl)propoxy]-2H-1-benzopyran-2-one] it is 87.5%. Turning to `COc1cc2oc(=O)cc(C(F)(F)F)c2cc1OCCCN1CCC(c2ccccc2)CC1` [Example 32, 7-methoxy-6-[3-(4-phenyl-1-piperidinyl)propoxy]-4-(trifluoromethyl)-2H-1-benzopyran-2-one], the responders at 25 mg/kg was 62.5%. Same read-out and setting: the figure for `O=c1ccc2cc(OC3CCCC3)c(OCCCN3CCC(c4ccccc4)CC3)cc2o1` [Example 13, 6-(cyclopentyloxy)-7-[3-(4-phenyl-1-piperidinyl)propoxy]-2H-1-benzopyran-2-one] is 100%; for `COc1cc2oc(=O)cc(C(C)C)c2cc1OCCCN1CCC(c2ccccc2)CC1` [Example 36, 7-methoxy-4-(1-methylethyl)-6-[3-(4-phenyl-1-piperidinyl)propoxy]-2H-1-benzopyran-2-one] it is 50%; for `COc1cc2oc(=O)c(C)c(C)c2cc1OCCCN1CCC(c2ccccc2)CC1` [Example 29, 7-methoxy-3,4-dimethyl-6-[3-(4-phenyl-1-piperidinyl)propoxy]-2H-1-benzopyran-2-one] it is 87.5%. On the same count and under the same terms, the figure for `CCOc1cc2ccc(=O)oc2cc1OCCCN1CCC(c2ccccc2)CC1` [Example 11, 6-ethoxy-7-[3-(4-phenyl-1-piperidinyl)propoxy]-2H-1-benzopyran-2-one] is 62.5%; for `COc1cc2oc(=O)c3c(c2cc1OCCCN1CCN(c2cccc(C)c2C)CC1)CCC3` [Example 53, 8-{3-[4-(2,3-dimethylphenyl)-1-piperazinyl]propoxy}-2,3-dihydro-7-methoxy-cyclopenta[c][1]benzopyran-4(1H)-one] it is 50%. For the molecule `CCCc1cc(=O)oc2cc(OC)c(OCCCN3CCC(c4ccccc4)CC3)cc12` [Example 34, 7-methoxy-6-[3-(4-phenyl-1-piperidinyl)propoxy]-4-propyl-2H-1-benzopyran-2-one], the responders at 25 mg/kg came out at 75%.

Staying with this assay, now noted: Mus musculus, po; 50 mg/kg p.o. 1 h before test; NMDA 25 mg/kg i.v.; read-out: Protective action (percentage of surviving animals).
On to `COc1cc2ccc(=O)oc2cc1OCC(O)CN1CCN(c2cccc(C(F)(F)F)c2)CC1` (racemic) [Example 21, (±)-7-{2-hydroxy-3-[4-(3-trifluoromethylphenyl)-1-piperazinyl]propoxy}-6-methoxy-2H-1-benzopyran-2-one], for which the responders at 50 mg/kg came out at 62.5%.

The assay is the same for the next values; noted with them: Mus musculus, po; 100 mg/kg p.o. 1 h before test; NMDA 25 mg/kg i.v.; read-out: Protective action (percentage of surviving animals).
Turning to `COc1cc2oc(=O)c(C)c(C)c2cc1OCCCN1CCN(Cc2ccc(Cl)cc2)CC1` [Example 30, 6-{3-[4-(4-chlorophenylmethyl)-1-piperazinyl]-propoxy}-7-methoxy-3,4-dimethyl-2H-1-benzopyran-2-one], the responders at 100 mg/kg turned out to be 37.5%.

For `COc1cc2oc(=O)ccc2cc1OCC(O)CN1CCC(O)(c2ccccc2)CC1` (racemic) [Example 24, (±)-6-[2-hydroxy-3-(4-hydroxy-4-phenyl-1-piperidinyl)propoxy]-7-methoxy-2H-1-benzopyran-2-one], the responders at 100 mg/kg stood at 37.5%. On the same count and under the same terms, the figure for `COc1cc2oc(=O)c3c(c2cc1OCCCN1CCN(c2ccc([N+](=O)[O-])cc2)CC1)CCC3` [Example 61, 2,3-dihydro-7-methoxy-8-{3-[4-(4-nitrophenyl)-1-piperazinyl]propoxy}cyclopenta[c][1]benzopyran-4(1H)-one] is 25%.
